Measured values taken from PMC10630959, “Dissimilar Effect of P-Glycoprotein and Breast Cancer Resistance Protein Inhibition on the Distribution of Erlotinib to the Retina and Brain in Humans and Mice” (Molecular Pharmaceutics, 2023).
Entries after “also recorded” stand apart in the source; their conditions may differ. Like-named read-outs stand apart in the source and are kept apart here. One block for each molecule: values may come before it.

Legend:
[1] = test system: OCTs, OCTNs and OATPs at the mouse BBB; assay: [^3H]erlotinib in situ carotid perfusion, brain transport with SLC transporter inhibitors; format: in vivo; conditions: 100 μM fexofenadine, 5 mM TEA, 100 μM estrone-3-sulfate, 0.5 mM ergothioneine, 5 mM L-carnitine
Protocol: (§1) Transport of [^3H]erlotinib at the luminal BRB and BBB was measured by in situ carotid perfusion.[11],[25] With this method, the vascular composition of the brain and the eye is completely substituted by an artificial fluid, whose constitution can be modified. The perfusion fluid for the in situ carotid perfusion consisted of Krebs carbonate-buffered physiological saline with 128 mM NaCl, 24 mM NaHCO3, 4.2 mM KCl, 2.4 mM NaH2PO4, 1.5 mM CaCl2, 0.9 mM MgSO4, and 9 mM D-glucose, warmed to 37 °C and gassed with 95% O2/5% CO2 to adjust the pH to 7.40. The pH of the perfusion fluid was checked and adjusted with a digital pH meter (±0.05 pH units) immediately before perfusion. Tissue accumulation of [^3H]erlotinib was measured under trans-influx zero to determine the kinetic conditions required to measure transport solely across the membrane, separating the sucrose (vascular) from the nonsucrose (tissue parenchyma) space. […] The first membrane (luminal/vascular) delimiting the sucrose space is the only kinetic interface that affects the distribution parameters of [^3H]erlotinib.
(§2) Mice were anesthetized with ketamine and xylazine (140 and 8 mg/kg, intraperitoneal), and a catheter was inserted into the right carotid artery after ligation of the appropriate vessels. Just before perfusion, the heart was cut. Perfusion started immediately at a constant flow rate of 2.5 mL/min. […] Perfusion was terminated by decapitating the mouse after 60 s. The right eye (without the optic nerve) and the right cerebral hemisphere were removed from the skull and dissected on a freezer pack. The tissues and aliquots of perfusion fluid were weighted, digested (Solvable; PerkinElmer), and mixed with Ultima-gold XR (PerkinElmer). Dual-label counting was carried out in a Tri-Carb 2810TR instrument (PerkinElmer) to measure radioactivity (disintegrations per minute, dpm). […] Therefore, radioactivity in the whole eye was assumed to represent only the posterior segment of the eye, which comprises the retina.
(§3) Calculations were performed as described previously.[11],[25] The initial transport rate, also called brain-eye clearance, expressed as Kin (μL/s/g) was selected as the main outcome parameter. The brain and eye tissue “vascular” volume (Vv; μL/g) was estimated by using the [^14C]sucrose distribution volume. The data for any mouse for which Vv was different from the normal values[25] were excluded from the analysis.

[2] = test system: OCTs, OCTNs and OATPs at the mouse BRB; assay: [^3H]erlotinib in situ carotid perfusion, retina transport with SLC transporter inhibitors; format: in vivo; conditions: 100 μM fexofenadine, 5 mM TEA, 100 μM estrone-3-sulfate, 0.5 mM ergothioneine, 5 mM L-carnitine
Protocol: as §1, §2, §3

[3] = test system: P-gp and BCRP at the mouse BRB
[4] = test system: P-gp and BCRP at the mouse BBB
[5] = set-up: method as in PMID 25165131; conditions: cited from earlier work
[6] = test system: P-gp and BCRP at the human BRB and BBB; set-up: method as in PMID 34220523; conditions: cited from earlier work
healthy volunteers = test system: healthy volunteers; set-up: method as in PMID 30237210; conditions: oral 1000 mg dose group; precluded inclusion of additional subjects; cited from earlier work
[7] = set-up: method as in PMID 26940368, PMID 30237210; conditions: under the PET inhibition protocols; cited from earlier work
[8] = test system: P-gp and BCRP at the human blood–retina barrier (BRB); assay: [^11C]erlotinib PET, distribution to the human retina, baseline vs P-gp and/or BCRP inhibition; format: in vivo
Protocol: (§4) Medication-free male (n = 20) and female (n = 2) subjects, who were judged to be healthy based on the screening examinations (past medical history, physical examination, blood and urine tests), were enrolled into the study and allocated to the tariquidar (n = 5) or erlotinib group (n = 17).
(§5) The second scan was performed on the same day for the tariquidar group or on a separate day for the erlotinib group. […] The total administered dose of tariquidar was of 5.6 ± 0.6 mg/kg body weight. For the erlotinib group (n = 17), the second PET scan was acquired approximately 3 h after oral intake of 300 mg (n = 7), 650 mg (n = 8), or 1000 mg (n = 2) of erlotinib (Tarceva; Roche Pharma, 50 and 150 mg tablets).[22] […] In addition to the PET scans, magnetic resonance imaging (MRI) of the head (T1-weighted; Magnetom Skyra 3.0-T MRI, Siemens Medical Solutions) was performed on all participants.
(§6) As described previously,[22] serial arterial blood samples were collected during the two PET imaging sessions in both groups. Venous blood samples were collected at baseline and hourly for 8 h and at approximately 21 h after oral erlotinib intake for determination of erlotinib plasma concentrations. A gamma counter, which was cross-calibrated with the PET camera, was used to determine the radioactivity concentrations in blood and plasma aliquots.
(§7) Volume of interest (VOI) analysis was conducted for the retina on MR-to-PET coregistered images using PMOD software (version 3.6; PMOD Technologies Ltd., Zürich, Switzerland). The retina VOI was outlined in a way to avoid spillover of radioactivity from adjacent anatomic structures (e.g., major blood vessels). The volume of the retina VOI was in the range of 0.8–0.9 cm^3. None of the dimensions of the retina VOIs were much smaller than 2 times the full width at half-maximum (2 × 4.36 mm) of the employed PET scanner, meaning that partial volume effects causing an underestimation of the true radiotracer concentration in the VOI were negligible. […] Time-activity curves (TACs) were extracted from the coregistered dynamic PET images and normalized to injected radioactivity amount per body weight and expressed in units of standardized uptake value (SUV). The area under the TACs in plasma (AUCplasma), the retina (AUCretina) and the brain (AUCbrain), from 0 to 60 min after radiotracer injection, was determined with Prism 9.5.0 software (GraphPad Software, La Jolla, CA, USA).

[9] = test system: P-gp and BCRP at the human blood–brain barrier (BBB); assay: [^11C]erlotinib PET, distribution to human whole brain gray matter, baseline vs P-gp and/or BCRP inhibition
Protocol: as §4, §5, §6, §7

P-gp at the human BRB = test system: P-gp at the human BRB; set-up: method as in PMID 27738009; conditions: i.v. tariquidar co-infusion; cited from earlier work
P-gp at the BBB = test system: P-gp at the BBB; set-up: method as in PMID 25669913; conditions: human; i.v. tariquidar co-infusion protocol; cited from earlier work
[10] = co-perfusion with 10 μM inhibitor
[11] = all combined oral erlotinib dose groups, p ≤ 0.001
[12] = oral erlotinib 300 mg, p ≤ 0.05
[13] = oral erlotinib 650 mg, p ≤ 0.05
[14] = co-perfusion with 20 μM inhibitor
[15] = all combined oral erlotinib doses, p ≤ 0.001
[16] = i.v. tariquidar infusion, p ≤ 0.05

Molecule: CC[N+](CC)(CC)CC [TEA, tetraethylammonium]
- significant changes in brain [^3H]erlotinib transport on co-perfusion [1]: None
- significant changes in retina [^3H]erlotinib transport on co-perfusion [2]: None

Molecule: COc1cc2c(cc1OC)CN(CCc1ccc(NC(=O)c3cccc4c(=O)c5cccc(OC)c5[nH]c34)cc1)CC2 [elacridar]
- increase in [^3H]erlotinib distribution to the retina (Kin) vs baseline ([3]; mouse BRB, co-perfusion with 10 μM inhibitor): +114%
- change in Kin of [^3H]erlotinib vs baseline [4, 10]: +277%

Molecule: COc1cc2ncnc(Nc3ccc(F)c(Cl)c3)c2cc1OCCCN1CCOCC1 [gefitinib]
- pKa [5]: 5.4

Molecule: COc1cc2c(cc1OC)CN(CCc1ccc(NC(=O)c3cc(OC)c(OC)cc3NC(=O)c3cnc4ccccc4c3)cc1)CC2 [[^11C]tariquidar]
- baseline distribution (VT) in the human retina relative to the human brain [6]: 4–5 times

Molecule: C[N+](C)(C)[C@@H](Cc1c[nH]c(=S)[nH]1)C(=O)[O-] [ergothioneine]
- significant changes in brain [^3H]erlotinib transport on co-perfusion [1]: None
- significant changes in retina [^3H]erlotinib transport on co-perfusion [2]: None

Molecule: C[C@]12CC[C@@H]3c4ccc(OS(=O)(=O)O)cc4CC[C@H]3[C@@H]1CCC2=O [estrone-3-sulfate]
- significant changes in brain [^3H]erlotinib transport on co-perfusion [1]: None
- significant changes in retina [^3H]erlotinib transport on co-perfusion [2]: None

Molecule: C[N+](C)(C)C[C@H](O)CC(=O)[O-] [L-carnitine]
- significant changes in brain [^3H]erlotinib transport on co-perfusion [1]: None
- significant changes in retina [^3H]erlotinib transport on co-perfusion [2]: None

Molecule: C#Cc1cccc(Nc2ncnc3cc(OCCOC)c(OCCOC)cc23)c1 [erlotinib]
- effect of co-infusion of unlabeled erlotinib on Kin of [^3H]erlotinib in the retina ([3]; mouse, two different doses (10 or 20 μM)): did not decrease
- adverse events (healthy volunteers): skin rash
- unbound plasma concentration in humans [7]: approximately 0.4 μM
- change in AUCR of [^11C]erlotinib vs baseline scan [8, 11]: −31 ± 15%
- change in VT of [^11C]erlotinib vs baseline scan [8, 11]: −41 ± 16%
- change in AUCR of [^11C]erlotinib vs baseline scan [8, 12]: −34 ± 9%
- change in VT of [^11C]erlotinib vs baseline scan [8, 12]: −44 ± 12%
- change in AUCR of [^11C]erlotinib vs baseline scan [8, 13]: −31 ± 21%
- change in VT of [^11C]erlotinib vs baseline scan [8, 13]: −42 ± 19%
- change in Kin of [^3H]erlotinib vs baseline [4, 10]: +215%
- change in Kin of [^3H]erlotinib vs baseline [4, 14]: +340%
- change in AUCR of [^11C]erlotinib vs baseline scan [9, 15]: +15 ± 14%
- change in VT of [^11C]erlotinib vs baseline scan [9, 15]: +20 ± 16%
- change in AUCR of [^11C]erlotinib vs baseline scan ([9]; oral erlotinib 300 mg): no statistically significant changes
- change in VT of [^11C]erlotinib vs baseline scan ([9]; oral erlotinib 300 mg): no statistically significant changes
- change in AUCR of [^11C]erlotinib vs baseline scan ([9]; oral erlotinib 650 mg): statistically significant increase
- change in VT of [^11C]erlotinib vs baseline scan ([9]; oral erlotinib 650 mg): statistically significant increase

- Kin at the mouse BRB relative to the BBB ([3]; mouse, in vivo): approximately 2 times
Molecule: [^3H]erlotinib

Molecule: COc1cc2c(cc1OC)CN(CCc1ccc(NC(=O)c3cc(OC)c(OC)cc3NC(=O)c3cnc4ccccc4c3)cc1)CC2 [tariquidar]
- increase in retinal VT of (R)-[^11C]verapamil (P-gp at the human BRB): 1.4 fold
- unbound plasma concentration in humans [7]: ~30 nM
- change in AUCR of [^11C]erlotinib vs baseline scan [8, 16]: −18 ± 8%
- change in VT of [^11C]erlotinib vs baseline scan [8, 16]: −25 ± 8%
- change in Kin of [^3H]erlotinib vs baseline [4, 10]: +270%
- change in Kin of [^3H]erlotinib vs baseline [4, 14]: +280%
- change in AUCR of [^11C]erlotinib vs baseline scan ([9]; i.v. tariquidar infusion): no significant changes
- change in VT of [^11C]erlotinib vs baseline scan ([9]; i.v. tariquidar infusion): did not result in any significant changes; also recorded: no significant changes
- increase in brain distribution of (R)-[^11C]verapamil (P-gp at the BBB): approximately 4 fold

Molecule: C/C=C/C[C@@H](C)C(=O)[C@H]1C(=O)N[C@@H](C(C)C)C(=O)N(C)CC(=O)N(C)[C@@H](CC(C)C)C(=O)N[C@@H](C(C)C)C(=O)N(C)[C@@H](CC(C)C)C(=O)N[C@@H](C)C(=O)N[C@H](C)C(=O)N(C)[C@@H](CC(C)C)C(=O)N(C)[C@@H](CC(C)C)C(=O)N(C)[C@@H](C(C)C)C(=O)N1C [valspodar]
- change in Kin of [^3H]erlotinib vs baseline [4, 10]: +120%
